According to patent US4529731A, “Thiadiazolediamine derivative with histamine H-2 receptor inhibiting properties” (American Home Products Corporation, priority 1983, dated 1985):
Entries after “also recorded” stand apart in the source; their conditions may differ.

Key:
[1] = tested on: spontaneous gastric acid secretion in cannulated rats; experiment: inhibiting spontaneous gastric acid secretion in cannulated rats; assay type: in vivo, Male albino Sprague Dawley rats; settings: for time after which a significant response ceases: cimetidine 80 mg/kg, ranitidine 60 mg/kg
Text: Male albino Sprague Dawley rats (200-300 g), purchased from Canadian Breeding Laboratories, were employed. Two gastric cannulas were implanted surgically in each rat as described by L. E. Borella and F. Herr, Gastroenterology, 61, 345 (1971). The rats were used two to three weeks after the operation at a time when their food intake and weight gain were similar to the food intake and weight gain of unoperated litter mates. […] Prior to each experiment, the plugs of the stomach cannulas of each rat were removed and the debris present in the stomach was flushed out with tepid saline passed through the cannulas. Thereafter, the lumen of the stomach was continuously perfused with saline introduced into the stomach through the forestomach cannula at a rate of 0.8-1.2 ml/min. […] On the basis of the hourly acid output, the rats were divided into equal groups so that the average acid output of all groups was similar. Saline (vehicle) or saline suspensions or solutions of the test compounds were administered intragastrically (i.g.) through the forestomach cannula, after having closed the antral cannula. During the one hour absorption period, the stomachs of the rats were not perfused. […] The average post-treatment hourly acid outputs of the test compound groups were compared to that of the saline group and the percent inhibition of acid output was calculated. Multiple statistical comparisons between groups was done using Dunnet's test, C. W. Dunnet, Journal of American Statistical Association, 50, 1096 (1955).

[2] = toxicity (statement in words)
[3] = tested on: cold-restraint-induced gastric lesions; experiment: development of cold-restraint-induced gastric lesions (ulcers); assay type: in vivo, male albino rats (Sprague-Dawley); settings: p.o.; for ULCER SCORE (MEAN ± S.E.): number of ulcers in glandular stomach
Protocol: Senay and R. J. Levine, Proc. Soc. Exp. Biol. Med., 124, 1221 (1967).
More explicitly exemplified, the beneficial effects were evaluated as follow: Food was withheld from male albino rats (165-175 g, Sprague-Dawley, Canadian Breeding Laboratories) for 24 hours but water was freely available. The object compound was administered orally in one milliliter of a liquid vehicle to the animals 30 minutes before placing the animals into restrainers. Just prior to being restrained, each animal was given orally 50 mg of sodium taurocholate. The vehicle empoloyed was saline containing polysorbate 80 (oleate ester of sorbitol and its anhydrides copolymerized with ethylene oxide), one drop per five milliliters of saline. The restrainers were made of plexiglass and restricted the movement of the rat to a minimum. The restrainers were placed in a cold environment (4°-5° C.) for three hours. The animals were sacrificed by cervical dislocation, the stomachs removed and the number of ulcers in the glandular portion of the stomach determined.

histamine H-2 receptors = experiment: inhibition of histamine H-2 receptors (statement in words)
[4] = 1 hr after dosing, peroral, object compound 80, cimetidine 80, ranitidine 60 mg/kg
[5] = 2 hr after dosing, peroral, object compound 80, cimetidine 80, ranitidine 60 mg/kg
[6] = 3 hr after dosing, peroral, object compound 80, cimetidine 80, ranitidine 60 mg/kg
[7] = 4 hr after dosing, peroral, object compound 80, cimetidine 80, ranitidine 60 mg/kg, cimetidine value = last statistically significant (*)
[8] = 5 hr after dosing, peroral, object compound 80, cimetidine 80, ranitidine 60 mg/kg, ranitidine value = last statistically significant (*)
[9] = 6 hr after dosing, peroral, object compound 80, ranitidine 60 mg/kg
[10] = 7 hr after dosing, peroral, object compound 80, ranitidine 60 mg/kg

Row | Compound | % INHIBITION OF ACID OUTPUT AT VARIOUS TIMES (HR) AFTER DOSING [1, 4] [%] | % INHIBITION OF ACID OUTPUT AT VARIOUS TIMES (HR) AFTER DOSING [1, 5] [%] | % INHIBITION OF ACID OUTPUT AT VARIOUS TIMES (HR) AFTER DOSING [1, 6] [%] | % INHIBITION OF ACID OUTPUT AT VARIOUS TIMES (HR) AFTER DOSING [1, 7] [%] | % INHIBITION OF ACID OUTPUT AT VARIOUS TIMES (HR) AFTER DOSING [1, 8] [%] | time after which a significant response ceases ([1]; peroral) [h] | % INHIBITION OF ACID OUTPUT AT VARIOUS TIMES (HR) AFTER DOSING [1, 9] [%] | % INHIBITION OF ACID OUTPUT AT VARIOUS TIMES (HR) AFTER DOSING [1, 10] [%] | other results
1 | CN/C(=N/CCSCc1nc[nH]c1C)NC#N [cimetidine, reference compound] | 84 | 84 | 63 | 52 | 3 | 5 | – | – | –
2 | CNC(=C[N+](=O)[O-])NCCSCc1ccc(CN(C)C)o1 [ranitidine, reference compound] | 69 | 81 | 65 | 63 | 44 | 6 | 39 | 6 | –
3 | CN(C)CCNc1n[s+]([O-])nc1NCCCOc1cccc(CN2CCCCC2)c1 (stereo not shown) [Object compound, N-[2-(dimethylamino)ethyl]-N'-[3-[3-[(1-piperidinyl)methyl]phenoxy]propyl]-1,2,5-thiadiazole-3,4-diamine, 1-oxide] | 88 | 95 | 96 | 95 | 94 | – | 85 | 61 | order of toxicity [2]: relatively low order of toxicity; % INHIBITION (ulcer score) ([3]; 1 mg/kg): 44%; ULCER SCORE (MEAN ± S.E.) ([3]; 1 mg/kg): 10 ± 9; % INHIBITION (ulcer score) ([3]; 5 mg/kg, * p < 0.05): 89%; ULCER SCORE (MEAN ± S.E.) ([3]; 5 mg/kg): 2 ± 1; % INHIBITION (ulcer score) ([3]; 20 mg/kg, ** p < 0.01): 95%; ULCER SCORE (MEAN ± S.E.) ([3]; 20 mg/kg): 0.9 ± 0.5; inhibition of histamine H-2 receptors (histamine H-2 receptors): effective inhibitor of histamine H-2 receptors; also recorded: specifically inhibits H-2 histamine receptors; % INHIBITION OF ACID OUTPUT AT VARIOUS TIMES (HR) AFTER DOSING ([1]; 8 hr after dosing, peroral, object compound 80 mg/kg): 52%; % INHIBITION OF ACID OUTPUT AT VARIOUS TIMES (HR) AFTER DOSING ([1]; 9 hr after dosing, peroral, object compound 80 mg/kg): 63%; % INHIBITION OF ACID OUTPUT AT VARIOUS TIMES (HR) AFTER DOSING ([1]; 10 hr after dosing, peroral, object compound 80 mg/kg): 64%; % INHIBITION OF ACID OUTPUT AT VARIOUS TIMES (HR) AFTER DOSING ([1]; 18 hr after dosing, peroral, object compound 80 mg/kg): 32%; % INHIBITION OF ACID OUTPUT AT VARIOUS TIMES (HR) AFTER DOSING ([1]; 19 hr after dosing, peroral, object compound 80 mg/kg, last statistically significant value (*)): 29%; % INHIBITION OF ACID OUTPUT AT VARIOUS TIMES (HR) AFTER DOSING ([1]; 20 hr after dosing, peroral, object compound 80 mg/kg): 7%; % INHIBITION OF 3 HOURS GASTRIC ACID OUTPUT ([1]; peroral dose 20 mg/kg, rat): 36%; % INHIBITION OF 3 HOURS GASTRIC ACID OUTPUT ([1]; peroral dose 40 mg/kg, rat): 65%; % INHIBITION OF 3 HOURS GASTRIC ACID OUTPUT ([1]; peroral dose 80 mg/kg, rat): 74%; duration of effect compared with cimetidine and ranitidine ([1]; peroral, object compound 80, cimetidine 80, ranitidine 60 mg/kg): longer acting effect; duration of action ([1]; rat, in vivo): long acting properties
